Laboratory results taken from patent publication US11524945B2, “Compounds for treating ILK-mediated diseases” (The Cleveland Clinic Foundation, priority 2018, dated 2022).
Values after ≈ are worked out from the molar mass of the structure shown. “Also recorded” adds a separate entry of the source.

Tests used:
CYP 2C9 = CYP 2C9 (Homo sapiens (Human), UniProt P11712); assay: CYP inhibition in human liver microsomes, 2C9; format: in vitro ADME
[1] = Metabolic stability in human liver microsomes; format: in vitro ADME; conditions: for Remaining Percentage (%): Human
kinases = assay: proteomic off target analysis vs known kinase inhibitors; conditions: FIG. 3, against FDA-approved kinase inhibitors
Text: Higher selectivity score means stronger off target effects.
To elucidate definitively how Csbl-1 specifically binds to ILK, we determined the crystal structure of Csbl-1/ILK complex. […] Thus our structure provides a hypothetical atomic basis for understanding why Csbl-1 binds selectively to ILK but unfavorably to EGFR (Table 1).

[2] = Protein binding in human plasma; format: in vitro ADME
[3] = Stability in PBS at pH 7.4; format: physicochemical
[4] = tested on: human derived patient TNBC tumor (PDX); assay: TNBC PDX mice; format: in vivo; conditions: 200 mg/kg orally five times/week, in olive oil; day 27; listed as Csbl-1
Procedure: FIG. 8, panels A-C, show the effect of Csbl-1 on TNBC PDX mice. Csbl-1 was dissolved in olive oil. Five mice with TNBC were treated orally with Csbl-1 at 200 mg/kg five times/week vs 4 control mice without the treatment.
(§1) The next step was to evaluate the effect of Csbl-1 in mice bearing TNBC tumors. Given the fact that higher ILK expression level is correlated with poor outcome and reduced survival for TNBC patients (FIG. 6) and the above TNBC cell-based data, we decided to test whether Csbl-1 would be effective in suppressing the TNBC tumors in mice. […] Xenograft TNBC tumors were generated using MDA-MB231 on 8 mice. […] when the tumors were ˜3 mm, 4 mice were fed with Csbl-1 at 100 mg/kg five times/week and the other 4 mice (control, no drug) had no Csbl-1 treatment. […] We also examined the Csbl-1 effect on the mouse models with human derived patient TNBC tumor (PDX).

MDA-MB-231 cells = assay: Proliferation of triple negative breast cancer MDA-MB-231 cells; format: cell-based
Procedure: Cells were seeded at 20,000 cells/ml in 12 well plates in complete media. On day 3, the compounds were added at final 2 μM and the cells were counted every 3 days. […] Cells were seeded at 10,000 cells/ml in 12 well plates in complete media. The compounds were added at final 2 μM on day 2 and the cells were counted every 2 days.

[5] = tested on: Xenograft TNBC tumors (MDA-MB231); assay: TNBC xenograft model (MDA-MB231); format: in vivo, mice; conditions: 100 mg/kg five times/week
Procedure: as §1

[6] = Stability in mouse plasma; format: in vitro ADME
[7] = Solubility in PBS at pH 7.4; format: physicochemical; conditions: aqueous buffer

Chain of CYP 2C9 (P11712 whole entry): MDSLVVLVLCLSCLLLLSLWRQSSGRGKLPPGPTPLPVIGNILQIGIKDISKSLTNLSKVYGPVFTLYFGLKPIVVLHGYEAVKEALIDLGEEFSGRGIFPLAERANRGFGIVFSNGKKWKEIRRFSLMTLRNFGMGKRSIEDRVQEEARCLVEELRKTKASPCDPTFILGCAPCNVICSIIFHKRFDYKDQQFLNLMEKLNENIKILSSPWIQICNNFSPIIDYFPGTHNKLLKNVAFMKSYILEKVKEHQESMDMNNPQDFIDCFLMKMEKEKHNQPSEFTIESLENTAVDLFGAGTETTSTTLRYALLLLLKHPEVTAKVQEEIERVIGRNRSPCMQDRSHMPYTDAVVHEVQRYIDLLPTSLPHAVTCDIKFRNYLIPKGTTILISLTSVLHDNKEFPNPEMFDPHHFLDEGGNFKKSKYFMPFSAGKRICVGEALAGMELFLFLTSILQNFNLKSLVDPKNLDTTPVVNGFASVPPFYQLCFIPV

Compound: C#Cc1cc(Nc2ncnc3cc(OCCOC)ccc23)cc(OCCOCC)c1 [Compound 1]
- IC50 (CYP 2C9): 13.8 µM
- half-life ([1]; Human Liver Microsomes): 34.8 min
- microsomal CLint ([1]; Human Liver Microsomes, read-out: CLint (μL/min/mg protein)): 39.8 µL/min/mg
- CLint scaled ([1]; Human Liver Microsomes, read-out: Scaled-up CLint): 49.9 mL/min/kg
- Remaining Percentage (%) ([1]; With NADPH, 0 min): 100.00%
- Remaining Percentage (%) ([1]; With NADPH, 15 min): 70.61%
- Remaining Percentage (%) ([1]; With NADPH, 30 min): 51.77%
- Remaining Percentage (%) ([1]; With NADPH, 45 min): 38.83%
- Remaining Percentage (%) ([1]; With NADPH, 60 min): 30.40%
- Remaining Percentage (%) ([1]; Without NADPH, 0 min): 100.00%
- Remaining Percentage (%) ([1]; Without NADPH, 15 min): 98.20%
- Remaining Percentage (%) ([1]; Without NADPH, 30 min): 92.81%
- Remaining Percentage (%) ([1]; Without NADPH, 45 min): 89.22%
- Remaining Percentage (%) ([1]; Without NADPH, 60 min): 103.59%
- off-target effect to kinases (kinases): minimal off-target effect
- recovery [2]: 98.8%
- fraction unbound ([2]; read-out: % Bound (converted)): 0.0303
- Remaining Percentage (%) ([3]; PBS pH 7.4, 0 min): 100.00%
- Remaining Percentage (%) ([3]; PBS pH 7.4, 30 min): 102.02%
- Remaining Percentage (%) ([3]; PBS pH 7.4, 60 min): 105.41%
- Remaining Percentage (%) ([3]; PBS pH 7.4, 120 min): 103.04%
- Remaining Percentage (%) ([3]; PBS pH 7.4, 180 min): 104.93%
- Remaining Percentage (%) ([3]; PBS pH 7.4, 240 min): 99.54%
- TNBC tumor growth in PDX mice [4]: effectively inhibited TNBC tumor growth; also recorded: significantly reduced
- IC50 (MDA-MB-231 cells; Homo sapiens, MDA-MB-231, read-out: IC50 on MDA-MB-231): ~0.19 µM
- effect on proliferation of MDA-MB-231 cells (MDA-MB-231 cells; compounds at final 2 μM, FIG. 5 panel B): substantially inhibited the proliferation
- weight difference vs control mice [5]: no significant weight difference
- Remaining Percentage (%) ([6]; 0 min): 100.00%
- Remaining Percentage (%) ([6]; 15 min): 96.17%
- Remaining Percentage (%) ([6]; 30 min): 96.17%
- Remaining Percentage (%) ([6]; 45 min): 97.56%
- Remaining Percentage (%) ([6]; 60 min): 96.17%
- Remaining Percentage (%) ([6]; 120 min): 93.73%
- solubility [7]: 7.96 µM (≈ 3.24 µg/mL)
